Literature values as cited in US4476120A, “Thiolic derivatives of erythromycin having therapeutic activity, and pharmaceutical compositions containing them” (Sigma Tau Indistrie Farmaceutiche Riunites, p.A, priority 1982, dated 1984).

Settings: C.A. 93 38279f; cited from earlier work

CC(=O)N[C@@H](CS)C(=O)O [acetylcysteine]
action with respect to the activity of antibiotics: inhibiting action with respect to the activity of antibiotics
